{"source": "patent US20030049712A1", "about": "“Method of detecting protease activity in a cell” (priority 2001, published 2003)", "test_system": "caspase-3", "assay": "Caspase3 assay using an NES-protease cleavage-NLS fusion protein (EYFP translocation)", "format": "cell-based", "details": "3T3 cells transiently transfected with pCaspase3-sensor Vector; staurosporin 700 nM; detected 4 hours post induction; untreated cells: EYFP in the cytoplasm", "from_the_text": "A construct was generated that includes a nucleotide sequence encoding a fusion protein including, in order from amino to carboxyl terminus, an NES of MAP-kinase-kinase (NLVDLQKKLEELELDEQQ; SEQ ID NO: 23); a recognition site for caspase-3 (DEVD; SEQ ID NO: 22) bordered by a stretch of amino acids found in the cleavage site of the endogenous caspase-3 substrate poly (ADP-ribose) polymerase (PARP; Nicholson et al. (1995) Nature 376:37-43; and Tewari et al. (1995) Cell 81:801-809), such that the cleavage recognition site has the sequence KRKGDEVDGVDF (SEQ ID NO: 24); an enhanced yellow fluorescent protein (EYFP); and a three tandem repeat of the NLS from simian virus large T antigen. In this construct, the NES is dominant over the NLS.\nThe construct was transfected into mammalian cells. Specifically, 3T3 cells were grown on coverslips, transiently transfected with the pCaspase3-sensor Vector which is encodes the above described fusion protein and is further illustrated in Clontechniques (April, 2002), and grown for 24 hours. Apoptosis was induced using staurosporin (700 nM) and caspase-3 activity was detected 4 hours post induction. Cells were fixed with 3% paraformaldehyde and photomicrographs were taken using a Zeiss microscope."}
{"compound": "CN[C@@H]1C[C@H]2O[C@@](C)([C@@H]1OC)n1c3ccccc3c3c4c(c5c6ccccc6n2c5c31)C(=O)NC4", "note": "[staurosporin]", "values": [{"measurement": "caspase-3 activity read out as subcellular location of EYFP", "result": "the EYFP was detected in the nucleus"}]}
